In patent publication US20120053165A1, “Novel Phenyl Imidazoles and Phenyl Triazoles As Gamma-Secretase Modulators” (Pfizer Inc., priority 2009, published 2012) one finds IC50 data, which are given here for 36 compounds.

This experiment concerns production of amyloid beta protein Aβ(1-42) in human WT-APP overexpressing CHO cells.
[1] abbreviates: read-out: Aβ 42 IC50, Geometric mean of 2-8 determinations, human WT-APP overexpressing CHO cells.
The mark [2] stands for this setting: Homo sapiens, CHO, read-out: Aβ 42 IC50.
The mark [3] stands for this setting: Homo sapiens, CHO, read-out: Aβ 42 IC50, Geometric mean of 2-8 determinations, human WT-APP overexpressing CHO cells.
Setting [4] is: Homo sapiens, CHO, read-out: GM Aβ 42B IC50, Geometric Mean of 2-8 Determinations, human WT-APP overexpressing CHO cells.

Structures can show the parent of a compound that is named as a salt. Where two headings read alike, the source gives them in different places.
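Further: Aβ(1-42) released into conditioned medium captured by ELISA after roughly 24 h compound exposure, vehicle and inhibitor controls defining maximal and minimal inhibition.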

Experimental: Cell-Based γ-Secretase Assay with ELISA Readout
The ability of compounds to modulate production of amyloid beta protein Aβ(1-42) was determined using human WT-APP overexpressing CHO cells. Cells were plated at 22,000 cells/100 μL well in 96 well tissue culture treated, clear plates (Falcon) in DMEM/F12 based medium and incubated for 24 hours at 37° C. […] Compounds were added in fresh medium to achieve 1% final DMSO. Appropriate vehicle and inhibitor controls were added to obtain maximum and minimum inhibition values for the assay before the plates were incubated for about 24 hours at 37° C.
Coating of ELISA assay plates was initiated by addition of 50 μL/well of an in house Aβ(1-42) specific antibody at (4 μg/mL) in 0.1 M NaHCO3 (pH 9.0) into black 384-well Maxisorp® plates (Nunc) and incubated overnight at 4° C. […] Ambient temperature incubation was allowed to proceed for a minimum of two hours before washing 2×100 μL with Wash Buffer (Dulbecco's PBS, 0.05% Tween 20). Assay Buffer (Dulbecco's PBS, 1.0% BSA (Sigma A7030), 0.05% Tween 20) 20 μL/well is then added.
After incubation overnight at 37° C., 5% CO2, 40 μL (in duplicate) of experimental conditioned media are transferred into wells of the blocked ELISA plates containing the capture antibody, followed by overnight incubation at 4° C.
After overnight incubation of the ELISA assay plates at 4° C., unbound Aβ peptides were removed thorough (4×100 μL) washes with Wash Buffer.

One may read the IC50 as the point on the concentration scale where inhibition reaches its midpoint. As to `COc1cc(C(=O)NCC2(c3ccccc3)CCCC2)ccc1-n1cnc(C)c1` [Example 27, 3-methoxy-4-(4-methyl-1H-imidazol-1-yl)-N-[(1-phenyl-cyclopentyl)methyl] benzamide], the IC50 under setting [1] was found to be 175 nM.

In the case of `COc1cc(C(=O)NCCc2ccccc2Cl)ccc1-n1cnc(C)c1` [Example 79, N-[2-(2-chlorophenyl)ethyl]-3-methoxy-4-(4-methyl-1H-imidazol-1-yl)benzamide], the IC50 under setting [2] stood at 495 nM.

For the compound `COc1cc(C(=O)NCc2nc3cc(Cl)c(C)cc3o2)ccc1-n1cnc(C)c1` [Example 86, N-[(5-chloro-6-methyl-1,3-benzoxazol-2-yl)methyl]-3-methoxy-4-(4-methyl-1H-imidazol-1-yl)benzamide], the IC50 under setting [3] amounted to 544 nM.

On to `COc1cc(C(=O)NC(C)Cc2ccc(C(F)(F)F)cc2)ccc1-n1cnc(C)c1` (stereo not drawn) [Example 88, 3-methoxy-4-(4-methyl-1H-imidazol-1-yl)-N-{1-methyl-2-[4-(trifluoromethyl)phenyl]ethyl} benzamide], for which the IC50 under setting [1] was 561 nM.

Regarding `COc1cc(C(=O)NCc2cc(-c3cccc(Cl)c3)no2)ccc1-n1cnc(C)c1` [Example 4, N-{[3-(3-chlorophenyl)isoxazol-5-yl]methyl}-3-methoxy-4-(4-methyl-1H-imidazol-1-yl)benzamide], the IC50 under setting [4] is 330 nM.

Consider `COc1cc(C(=O)NCCc2ccc(C)c(C)c2)ccc1-n1cnc(C)c1` [Example 64, N-[2-(3,4-dimethyl-phenyl)ethyl]-3-methoxy-4-(4-methyl-1H-imidazol-1-yl)benzamide], for which the IC50 under setting [2] came out at 395 nM.

As for `COc1cc(C(=O)N2CCCC2COc2ccccc2C(F)(F)F)ccc1-n1cnc(C)c1` (stereo not drawn) [Example 134, 1-{2-methoxy-4-[(2-{[2-(tri-fluoromethyl)phenoxy]methyl}pyrrolidin-1-yl)carbonyl]phenyl}-4-methyl-1H-imidazole], the IC50 under setting [3] is 675 nM.

For `Cc1cn(-c2ccc(C(=O)NCC3(c4cccc(C(F)(F)F)c4)CCOCC3)cc2F)cn1` [Example 7, 3-fluoro-4-(4-methyl-1H-imidazol-1-yl)-N-({4-[3-(trifluoromethyl)phenyl]tetrahydro-2H-pyran-4-yl}methyl)benzamide, formic acid salt], under setting [4], the IC50 turned out to be 2190 nM.

On to `COc1cc(C(=O)NCCc2c[nH]c3ccc(C)cc23)ccc1-n1cnc(C)c1` [Example 97, 3-methoxy-4-(4-methyl-1H-imidazol-1-yl)-N-[2-(5-methyl-1H-indol-3-yl)ethyl] benzamide], for which the IC50 under setting [1] worked out at 634 nM.

On to `COc1cc(C(=O)NCc2cc(C)ccc2C)ccc1-n1cnc(C)c1` [Example 82, N-(2,5-dimethylbenzyl)-3-methoxy-4-(4-methyl-1H-imidazol-1-yl) benzamide], for which, under setting [1], the IC50 is 513 nM.

Regarding `COc1cc(C(=O)NC(C)c2ccc3[nH]ccc3c2)ccc1-n1cnc(C)c1` (stereo not drawn) [Example 99, N-[1-(1H-indol-5-yl)ethyl]-3-methoxy-4-(4-methyl-1H-imidazol-1-yl) benzamide], under setting [1], the concentration for half-maximal inhibition (IC50) turned out to be 665 nM.

`COc1cc(C(=O)NCc2cccc(Cl)c2)ccc1-n1cnc(C)c1` [Example 84, N-(3-chlorobenzyl)-3-methoxy-4-(4-methyl-1H-imidazol-1-yl) benzamide]: the IC50 under setting [1] stood at 520 nM.

Regarding `COc1cc(C(=O)NCC(C)Oc2ccccc2Cl)ccc1-n1cnc(C)c1` (stereo not drawn) [Example 74, N-[2-(2-chlorophenoxy)propyl]-3-methoxy-4-(4-methyl-1H-imidazol-1-yl)benzamide], the IC50 under setting [3] is 466 nM.

`COc1cc(C(=O)N2CCC(c3cccc(Cl)c3)C2)ccc1-n1cnc(C)c1` (stereo not drawn) [Example 98, 1-(4-{[3-(3-chlorophenyl)pyrrolidin-1-yl]carbonyl}-2-methoxyphenyl)-4-methyl-1H-imidazole]: the IC50 under setting [3] is 642 nM.

As to `COc1cc(C(=O)NCc2cnc(-c3ccccc3)s2)ccc1-n1cnc(C)c1` [Example 16, 3-methoxy-4-(4-methyl-1H-imidazol-1-yl)-N-[(2-phenyl-1,3-thiazol-5-yl)methyl] benzamide], under setting [1], the IC50 amounted to 283 nM.

Regarding `COc1cc(C(=O)NCC(C)(O)c2ccc(Cl)cc2)ccc1-n1cnc(C)c1` (stereo not drawn) [Example 2, N-[2-(4-chlorophenyl)-2-hydroxypropyl]-3-methoxy-4-(4-methyl-1H-imidazol-1-yl)benzamide], the IC50 under setting [4] was found to be 942 nM.

Consider `COc1cc(C(=O)NCCc2cccc(Cl)c2)ccc1-n1cnc(C)n1` [Example 6, N-[2-(3-chlorophenyl)ethyl]-3-methoxy-4-(3-methyl-[1,2,4]triazol-1-yl)benzamide], for which, under setting [4], the IC50 was found to be 4210 nM.

`COc1cc(C(=O)NC(C)CCc2ccccc2)ccc1-n1cnc(C)c1` (stereo not drawn) [Example 100, 3-methoxy-4-(4-methyl-1H-imidazol-1-yl)-N-(1-methyl-3-phenylpropyl) benzamide]: the IC50 under setting [1] is 667 nM.

`COc1cc(C(=O)NCc2ccc(-c3ccc(Cl)cc3)s2)ccc1-n1cnc(C)c1` [Example 49, N-{[5-(4-chlorophenyl)-2-thienyl]methyl}-3-methoxy-4-(4-methyl-1H-imidazol-1-yl) benzamide]: the IC50 under setting [1] came out at 137 nM.

In the case of `COc1cc(C(=O)NCCc2cc(C)ccc2C)ccc1-n1cnc(C)c1` [Example 71, N-[2-(2,5-dimethylphenyl)ethyl]-3-methoxy-4-(4-methyl-1H-imidazol-1-yl) benzamide], the IC50 under setting [1] amounted to 429 nM.

For the compound `COc1cc(C(=O)N2CCC(COc3ccccc3C(F)(F)F)C2)ccc1-n1cnc(C)c1` (stereo not drawn) [Example 132, 1-{2-methoxy-4-[(3-{[2-(tri-fluoromethyl)phenoxy]methyl}pyrrolidin-1-yl)carbonyl]phenyl}-4-methyl-1H-imidazole], the IC50 under setting [3] stood at 472 nM.

For `COc1cc(C(=O)NCc2cc(-c3ccc(F)cc3)on2)ccc1-n1cnc(C)c1` [Example 116, N-{[5-(4-fluorophenyl)isoxazol-3-yl]methyl}-3-methoxy-4-(4-methyl-1H-imidazol-1-yl)benzamide], under setting [3], the IC50 turned out to be 815 nM.

In the case of `COc1cc(C(=O)N(Cc2cc(C(C)C)ccc2C)C2CC2)ccc1-n1cnc(C)c1` [Example 125, N-cyclopropyl-N-(5-isopropyl-2-methylbenzyl)-3-methoxy-4-(4-methyl-1H-imidazol-1-yl) benzamide], under setting [1], the IC50 turned out to be 185 nM.

For `COc1cc(C(=O)N2CC(COc3cccc(C(F)(F)F)c3)C2)ccc1-n1cnc(C)c1` [Example 133, 1-{2-methoxy-4-[(3-{[3-(trifluoromethyl)phenoxy]methyl}azetidin-1-yl)carbonyl]phenyl}-4-methyl-1H-imidazole], the IC50 under setting [3] was 496 nM.

With `COc1cc(C(=O)NC(c2ccc(F)cc2)c2cccs2)ccc1-n1cnc(C)c1` (stereo not drawn) [Example 41, N-[(4-fluoro-phenyl)(2-thienyl)methyl]-3-methoxy-4-(4-methyl-1H-imidazol-1-yl)benzamide, trifluoroacetic acid salt], the IC50 under setting [3] was determined as 328 nM.

As to `COc1cc(C(=O)NC2CCCc3c(O)cccc32)ccc1-n1cnc(C)c1` (stereo not drawn) [Example 106, N-(5-hydroxy-1,2,3,4-tetrahydronaphthalen-1-yl)-3-methoxy-4-(4-methyl-1H-imidazol-1-yl)benzamide], the IC50 under setting [3] was 731 nM.

`COc1cc(C(=O)NCC2(c3ccc(C(F)(F)F)cc3)CCOCC2)ccc1-n1cnc(C)c1` [Example 28, 3-methoxy-4-(4-methyl-1H-imidazol-1-yl)-N-({4-[4-(tri-fluoromethyl)phenyl]tetrahydro-2H-pyran-4-yl}methyl) benzamide]: under setting [1], the IC50 came out at 188 nM.

With `COc1cc(C(=O)NCCCc2ccc(F)cc2)ccc1-n1cnc(C)c1` [Example 81, N-[3-(4-fluorophenyl)propyl]-3-methoxy-4-(4-methyl-1H-imidazol-1-yl)benzamide], the IC50 under setting [3] was 504 nM.

As to `COc1cc(C(=O)NCc2ccc(OC(F)(F)F)cc2)ccc1-n1cnc(C)c1` [Example 57, 3-methoxy-4-(4-methyl-1H-imidazol-1-yl)-N-[4-(trifluoro-methoxy)benzyl] benzamide], under setting [1], the half-inhibitory concentration (IC50) is 339 nM.

`COc1cc(C(=O)NCc2ccc(C(F)(F)F)c(F)c2)ccc1-n1cnc(C)c1` [Example 83, N-[3-fluoro-4-(trifluoromethyl)benzyl]-3-methoxy-4-(4-methyl-1H-imidazol-1-yl) benzamide]: the IC50 under setting [1] worked out at 514 nM.

In the case of `COc1cc(C(=O)N2CC(COc3cccc4ccccc34)C2)ccc1-n1cnc(C)c1` [Example 135, 1-[2-methoxy-4-({3-[(1-naphthyloxy)methyl]azetidin-1-yl}carbonyl)phenyl]-4-methyl-1H-imidazole trifluoroacetate salt], the IC50 (Homo sapiens, CHO, read-out: Aβ 42 IC50, Geometric mean of at least 2 determinations, human WT-APP overexpressing CHO cells) was 111 nM.

As for `COc1cc(C(=O)NCC2(c3ccc(Br)cc3)CC2)ccc1-n1cnc(C)c1` [Example 39, N-{[1-(4-bromophenyl)cyclopropyl]methyl}-3-methoxy-4-(4-methyl-1H-imidazol-1-yl) benzamide], the IC50 (read-out: Aβ 42 IC50, Single IC50 determination, human WT-APP overexpressing CHO cells) came out at 248 nM.

As for `COc1cc(C(=O)NCc2ccc(F)cc2Cl)ccc1-n1cnc(C)c1` [Example 76, N-(2-chloro-4-fluorobenzyl)-3-methoxy-4-(4-methyl-1H-imidazol-1-yl)benzamide], the IC50 under setting [3] was found to be 476 nM.

`COc1cccc(C2(CNC(=O)c3ccc(-n4cnc(C)c4)c(OC)c3)CCCC2)c1` [Example 65, 3-methoxy-N-{[1-(3-methoxyphenyl)cyclopentyl]methyl}-4-(4-methyl-1H-imidazol-1-yl) benzamide]: the IC50 under setting [1] amounted to 410 nM.

Consider `CCOc1cccc(CCNC(=O)c2ccc(-n3cnc(C)c3)c(OC)c2)c1` [Example 112, N-[2-(3-ethoxyphenyl)ethyl]-3-methoxy-4-(4-methyl-1H-imidazol-1-yl)benzamide], for which the IC50 under setting [2] was 765 nM.

As to `COc1cc(C(=O)NCc2sc3ccccc3c2Cl)ccc1-n1cnc(C)c1` [Example 70, N-[(3-chloro-1-benzothien-2-yl)methyl]-3-methoxy-4-(4-methyl-1H-imidazol-1-yl) benzamide], the IC50 under setting [1] came to 425 nM.
